We go through 20 compounds from patent US10100036B2, “Lappaconitine aza-cinnamic acid derivatives with anti-tumor activities and a method of preparing the same” (priority 2016, dated 2018).

Molecules are shown by their SMILES.

The subject of assay [1] is human gastric adenocarcinoma cell line (SGC-7901). The experiment in a line: tumor cell proliferation inhibition test, MTT method. The format is cell-based. The note with it: 48 hours treatment. Here is the method: (§1) The compounds of the present invention were subjected to tumor cell proliferation inhibition test, and the conventional MTT method was used as the test method.
(§2) Cell lines selected are human prostate cancer cell line (PC-3), human gastric adenocarcinoma cell line (SGC-7901), and human lung cancer cell (A-549). The culture medium was DMEM+15% NBS+double antibody.
(§3) Preparation of the sample solutions: compounds were dissolved in DMSO (Merck), and PBS (−) was add to 100 μL of the solution or homogeneous suspension. The solution or suspension was diluted with DMSO and PBS(−) to final concentrations of 0.1, 1, 10, 20, 40, 60, 80, 100 μmol/L.
(§4) Anti-tumor agent 5-fluorouracil (5-FU) was used as control and was prepared in the same way as the compounds.
(§5) Living cells mitochondria in the dehydrogenase can reduce yellow MTT to water-insoluble blue-violet product MT (MTT formazan), deposited in the cells. The amount of production is proportional to the number of living cells. […] DMSO can dissolve blue violet crystals, and the color depth is proportional to the amount contained, so the absorbance measured by the microplate reader can reflect the cell viability.
(§6) The exponential phase cells were digested and counted and seeded in 96-well plates at a density of 2×10^4/mL at 100 μl per well. After 24 hours of incubation, the cells to be tested were treated with 0.1, 1, 10, 20, 40, 60, 80, 100 μmol/L of the compounds. Each experimental group had 5 wells in each concentration, and the culture medium containing 0.4% DMSO was used as control. After 48 hours, the supernatant was discarded, and 100 μl of MTT ((2-(4,5-dimethyl-2-thiazolyl)-3,5-diphenyl-2H-tetrazole hydrobromide) (1 mg/mL) was added to each well. After another 4 hours, the supernatant was discarded, and 100 μL of DMSO was added to each well. After mixing, the absorbance was measured at 570 nm using a microplate reader. An IC50 calculation software was used to determine the half inhibitory concentration (IC50).
(In general: Tetrazolium dyes change colour on reduction, which living cells bring about.)

Assay [2] relates to human lung cancer cell (A-549). The description is as above. The conditions noted are these: 48 hours treatment, A549. The class given is cell-based. As for the experimental part: as §1, §2, §3, §4, §5, §6
The test system of assay [3] is human prostate cancer cell line (PC-3). The assay is described as above. The format is cell-based. The conditions noted are these: 48 hours treatment. Here is the method:
as §1, §2, §3, §4, §5, §6

Assay [4] has as its system PC-3, SGC-7901 and A-549 tumor cells. In words: tumor cell proliferation inhibition test, summary over the three cell lines. The format is cell-based, human. The note with it: in the 3 cell lines tested. As for the experimental part: as §1, §2, §6

Take `CCN1C[C@]2(OC(=O)c3ccccc3NC(=O)/C=C/c3ccncc3)CC[C@H](OC)[C@]34C1[C@@H](C[C@H]23)[C@@]1(O)C[C@H](OC)C[C@H]2C[C@@H]4[C@]1(O)[C@H]2OC` [Compound 1]: the figures for the half-maximal inhibitory concentration (IC50) in assay [1], in assay [2] and in assay [3] were 22.5 ± 1.35 µM, 9.12 ± 2.53 µM and 18.1 ± 0.64 µM, respectively.
For `CCN1C[C@]2(OC(=O)c3ccccc3NC(=O)/C=C/c3cccnc3)CC[C@H](OC)[C@]34C1[C@@H](C[C@H]23)[C@@]1(O)C[C@H](OC)C[C@H]2C[C@@H]4[C@]1(O)[C@H]2OC` [Compound 2], in that order: 26.3 ± 0.37 µM, 13.4 ± 2.78 µM and 26.4 ± 0.36 µM.
On to `CCN1C[C@]2(OC(=O)c3ccccc3NC(=O)/C=C/c3ccccn3)CC[C@H](OC)[C@]34C1[C@@H](C[C@H]23)[C@@]1(O)C[C@H](OC)C[C@H]2C[C@@H]4[C@]1(O)[C@H]2OC` [Compound 3], for which the half-inhibitory concentration (IC50) in assay [1] came to 13.7 ± 1.28 µM; in assay [3], 15.2 ± 1.18 µM.
As for `CCN1C[C@]2(OC(=O)c3ccccc3NC(=O)/C=C(\C)c3cccnc3)CC[C@H](OC)[C@]34C1[C@@H](C[C@H]23)[C@@]1(O)C[C@H](OC)C[C@H]2C[C@@H]4[C@]1(O)[C@H]2OC` [Compound 4], the results for the IC50 in assay [1], in assay [2] and in assay [3] were over 100 µM, 67.31 ± 0.44 µM and over 100 µM, respectively.
In the case of `O=c1[nH]cc(F)c(=O)[nH]1` [Compound 5-FU, 5-fluorouracil, reference compound], the IC50 turned out to be 22.4 ± 1.67 µM in assay [1], 15.6 ± 3.54 µM in assay [2] and 8.17 ± 0.39 µM in assay [3].
`CCN1C[C@]2(OC(=O)c3ccccc3NC(=O)/C=C/c3cncc(C)c3)CC[C@H](OC)[C@]34C1[C@@H](C[C@H]23)[C@@]1(O)C[C@H](OC)C[C@H]2C[C@@H]4[C@]1(O)[C@H]2OC` [Compound 5]: in assay [4], the “activities compared with 5-fluorouracil” value was “equal or better activities than 5-fluorouracil”. The half-inhibitory concentration (IC50) in assay [1] was 29.6 ± 3.54 µM; in assay [2], 13.2 ± 0.39 µM; in assay [3], 11.3 ± 0.64 µM.
Regarding `CCN1C[C@]2(OC(=O)c3ccccc3NC(=O)/C=C/c3cnccc3C)CC[C@H](OC)[C@]34C1[C@@H](C[C@H]23)[C@@]1(O)C[C@H](OC)C[C@H]2C[C@@H]4[C@]1(O)[C@H]2OC` [Compound 6], the IC50 in assay [1] is 37.8 ± 0.42 µM; in assay [2] it was 42.65 ± 0.38 µM; in assay [3] it was 33.5 ± 1.17 µM.
`CCN1C[C@]2(OC(=O)c3ccccc3NC(=O)/C=C/c3ccc(C)nc3)CC[C@H](OC)[C@]34C1[C@@H](C[C@H]23)[C@@]1(O)C[C@H](OC)C[C@H]2C[C@@H]4[C@]1(O)[C@H]2OC` [Compound 7]: the IC50 in assay [1] came out at 39.3 ± 1.74 µM; in assay [2], 47.31 ± 0.44 µM; in assay [3], 43.3 ± 1.42 µM.
As to `CCc1cncc(/C=C/C(=O)Nc2ccccc2C(=O)O[C@@]23CC[C@H](OC)[C@]45C([C@@H](C[C@H]24)[C@@]2(O)C[C@H](OC)C[C@H]4C[C@@H]5[C@]2(O)[C@H]4OC)N(CC)C3)c1` [Compound 8], the values for the IC50 in assay [1], in assay [2] and in assay [3] were 33.5 ± 1.18 µM, 25.1 ± 2.23 µM and 38.1 ± 0.44 µM, respectively.
The corresponding values for `CCN1C[C@]2(OC(=O)c3ccccc3NC(=O)/C=C(\C)c3ccncc3)CC[C@H](OC)[C@]34C1[C@@H](C[C@H]23)[C@@]1(O)C[C@H](OC)C[C@H]2C[C@@H]4[C@]1(O)[C@H]2OC` [Compound 9] are over 100 µM, over 100 µM and 73.37 ± 0.69 µM.
`CCN1C[C@]2(OC(=O)c3ccccc3NC(=O)/C(C)=C/c3ccncc3)CC[C@H](OC)[C@]34C1[C@@H](C[C@H]23)[C@@]1(O)C[C@H](OC)C[C@H]2C[C@@H]4[C@]1(O)[C@H]2OC` [Compound 10]: the IC50 in assay [1], in assay [2] and in assay [3] was over 100 µM in each case.
For the compound `CCN1C[C@]2(OC(=O)c3ccccc3NC(=O)/C=C/c3ccnc(C)c3)CC[C@H](OC)[C@]34C1[C@@H](C[C@H]23)[C@@]1(O)C[C@H](OC)C[C@H]2C[C@@H]4[C@]1(O)[C@H]2OC` [Compound 11], the “activities compared with 5-fluorouracil” value in assay [4] is given as “equal or better activities than 5-fluorouracil”. Moreover, the half-maximal inhibitory concentration (IC50) in assay [1] came out at 10.2 ± 0.45 µM; in assay [2], 18.6 ± 0.43 µM; in assay [3], 10.2 ± 0.78 µM.
The corresponding values for `CCc1cc(/C=C/C(=O)Nc2ccccc2C(=O)O[C@@]23CC[C@H](OC)[C@]45C([C@@H](C[C@H]24)[C@@]2(O)C[C@H](OC)C[C@H]4C[C@@H]5[C@]2(O)[C@H]4OC)N(CC)C3)ccn1` [Compound 12] are “equal or better activities than 5-fluorouracil”, 25.05 ± 0.16 µM, 21.7 ± 0.45 µM and 13.86 ± 0.1 µM.
Take `CCN1C[C@]2(OC(=O)c3ccccc3NC(=O)/C=C/c3cc(C)nc(C)c3)CC[C@H](OC)[C@]34C1[C@@H](C[C@H]23)[C@@]1(O)C[C@H](OC)C[C@H]2C[C@@H]4[C@]1(O)[C@H]2OC` [Compound 13]: the IC50 in assay [1] was 18 ± 0.58 µM; in assay [2], 32.3 ± 1.34 µM; in assay [3], 16.6 ± 1.87 µM.
For `CCN1C[C@]2(OC(=O)c3ccccc3NC(=O)/C=C/c3cc(C)ccn3)CC[C@H](OC)[C@]34C1[C@@H](C[C@H]23)[C@@]1(O)C[C@H](OC)C[C@H]2C[C@@H]4[C@]1(O)[C@H]2OC` [Compound 14], in that order: 87.02 ± 0.58 µM, 41.3 ± 1.42 µM and 67.8 ± 1.3 µM.
For `CCc1ccnc(/C=C/C(=O)Nc2ccccc2C(=O)O[C@@]23CC[C@H](OC)[C@]45C([C@@H](C[C@H]24)[C@@]2(O)C[C@H](OC)C[C@H]4C[C@@H]5[C@]2(O)[C@H]4OC)N(CC)C3)c1` [Compound 15], in that order: 21.8 ± 1.2 µM, 47.3 ± 2.56 µM and 44.1 ± 2.73 µM.
Regarding `CCN1C[C@]2(OC(=O)c3ccccc3NC(=O)/C=C/c3cc(C)cc(C)n3)CC[C@H](OC)[C@]34C1[C@@H](C[C@H]23)[C@@]1(O)C[C@H](OC)C[C@H]2C[C@@H]4[C@]1(O)[C@H]2OC` [Compound 16], the half-maximal inhibitory concentration (IC50) in assay [1] was over 100 µM; in assay [2], 69.3 ± 1.42 µM; in assay [3], 40.8 ± 2.55 µM.
The corresponding values for `CCN1C[C@]2(OC(=O)c3ccccc3NC(=O)/C=C/c3cc(C(C)C)ccn3)CC[C@H](OC)[C@]34C1[C@@H](C[C@H]23)[C@@]1(O)C[C@H](OC)C[C@H]2C[C@@H]4[C@]1(O)[C@H]2OC` [Compound 17] are over 100 µM, over 100 µM and 61.3 ± 1.24 µM.
The corresponding values for `CCN1C[C@]2(OC(=O)c3ccccc3NC(=O)/C(C)=C/c3cccc(C)n3)CC[C@H](OC)[C@]34C1[C@@H](C[C@H]23)[C@@]1(O)C[C@H](OC)C[C@H]2C[C@@H]4[C@]1(O)[C@H]2OC` [Compound 18] are over 100 µM, over 100 µM and over 100 µM.
The corresponding values for `CCN1C[C@]2(OC(=O)c3ccccc3NC(=O)/C=C/c3cccc(C)n3)CC[C@H](OC)[C@]34C1[C@@H](C[C@H]23)[C@@]1(O)C[C@H](OC)C[C@H]2C[C@@H]4[C@]1(O)[C@H]2OC` [Compound 19] are 95.1 ± 1.92 µM, over 100 µM and over 100 µM.

Broadly, the IC50 is the concentration that gives 50% inhibition. Lower therefore signals higher potency.
